According to patent US8921397B2, “Benzofurane-piperidine compounds” (Hoffmann-La Roche Inc., priority 2011, dated 2014):

Experiments:
human D3 receptor = human D3 receptor (Homo sapiens (Human), UniProt P35462); experiment: Radioligand binding ([3H]-spiperone) to human D3 receptor, HEK293 EBNA membranes; conditions: HEK293 EBNA cells expressing human D3 receptor
Method in brief: (§1)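 Membranes from transiently transfected HEK293 EBNA cells (~7.5 μg protein/well) were incubated 1 h at RT with [3H]-spiperone (~0.7 nM for D2, 0.5 nM for D3) and ten compound concentrations (10 μM–0.1 nM) in Tris/NaCl/MgCl2/CaCl2 buffer pH 7.4. Filtration and scintillation counting, nonspecific with 10 μM spiperone; Ki via Cheng-Prusoff.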

human 5-HT2A receptor = human 5-HT2A receptor (Homo sapiens (Human), UniProt P28223); experiment: Radioligand binding ([3H]-ketanserin) to human 5-HT2A receptor, HEK293 EBNA membranes; conditions: HEK293 EBNA cells expressing human 5-HT2A receptor
Method in brief: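 Membranes from HEK293 EBNA cells transiently expressing the human receptor were incubated 1 h at RT with ~0.7 nM (D2) or 0.5 nM (D3) [3H]-spiperone, or 1.1 nM [3H]-ketanserin (5-HT2A), plus ten compound concentrations (10 μM–0.1 nM). Nonspecific binding was set with 10 μM spiperone; Ki was derived from IC50 via Cheng-Prusoff.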

human D2 receptor = human D2 receptor (Homo sapiens (Human), UniProt P14416); experiment: Radioligand binding ([3H]-spiperone) to human D2 receptor, HEK293 EBNA membranes; conditions: HEK293 EBNA cells expressing human D2 receptor
Method in brief: as §1

human D2 receptor, sequence (P14416 whole entry): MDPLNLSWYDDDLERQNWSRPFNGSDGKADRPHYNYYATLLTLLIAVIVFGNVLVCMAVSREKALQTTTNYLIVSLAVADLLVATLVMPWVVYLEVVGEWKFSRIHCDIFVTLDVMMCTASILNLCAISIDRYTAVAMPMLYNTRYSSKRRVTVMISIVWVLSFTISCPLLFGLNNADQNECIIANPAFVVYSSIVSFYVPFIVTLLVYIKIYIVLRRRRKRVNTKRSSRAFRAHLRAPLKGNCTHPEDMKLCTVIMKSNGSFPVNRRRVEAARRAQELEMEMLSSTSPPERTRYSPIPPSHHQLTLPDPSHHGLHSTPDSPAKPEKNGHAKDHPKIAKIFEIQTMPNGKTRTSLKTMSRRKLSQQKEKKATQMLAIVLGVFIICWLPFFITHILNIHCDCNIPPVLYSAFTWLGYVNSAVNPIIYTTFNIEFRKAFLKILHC
human 5-HT2A receptor, sequence (P28223 whole entry): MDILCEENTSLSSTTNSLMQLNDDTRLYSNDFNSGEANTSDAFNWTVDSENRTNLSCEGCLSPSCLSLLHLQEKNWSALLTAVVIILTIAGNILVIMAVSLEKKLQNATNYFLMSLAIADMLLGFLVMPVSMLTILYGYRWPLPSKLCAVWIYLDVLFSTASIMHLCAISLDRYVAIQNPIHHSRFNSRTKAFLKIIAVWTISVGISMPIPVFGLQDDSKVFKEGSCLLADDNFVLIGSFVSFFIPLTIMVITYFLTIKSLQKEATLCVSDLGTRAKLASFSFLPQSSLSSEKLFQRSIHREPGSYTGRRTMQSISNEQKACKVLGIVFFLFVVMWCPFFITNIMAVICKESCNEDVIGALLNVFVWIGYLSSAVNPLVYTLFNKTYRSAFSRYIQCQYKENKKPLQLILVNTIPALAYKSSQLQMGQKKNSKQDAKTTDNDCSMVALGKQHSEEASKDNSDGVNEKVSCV
human D3 receptor, sequence (P35462 whole entry): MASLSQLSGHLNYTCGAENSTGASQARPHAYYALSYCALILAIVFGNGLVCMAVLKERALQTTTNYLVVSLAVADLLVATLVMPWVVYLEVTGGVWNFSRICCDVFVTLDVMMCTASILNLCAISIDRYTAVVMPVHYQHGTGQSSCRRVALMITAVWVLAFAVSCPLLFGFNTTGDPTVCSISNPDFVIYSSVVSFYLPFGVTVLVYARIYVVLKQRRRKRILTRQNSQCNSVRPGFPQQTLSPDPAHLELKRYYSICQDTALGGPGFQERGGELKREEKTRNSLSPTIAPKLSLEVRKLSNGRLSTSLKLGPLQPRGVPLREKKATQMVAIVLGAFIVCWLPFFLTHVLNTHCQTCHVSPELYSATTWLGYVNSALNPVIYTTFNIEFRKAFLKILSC

| D2 Ki (human D2 receptor) | SMILES | Ki (human D3 receptor) | melting point | Ki (human 5-HT2A receptor) | Ki (human D2 receptor) |
| --- | --- | --- | --- | --- | --- |
| – | O=C(N[C@H]1CC[C@H](CCN2CCC(c3coc4ccccc34)CC2)CC1)C1CCOCC1 [Example 3, Tetrahydro-pyran-4-carboxylic acid trans-{4-[2-(4-benzofuran-3-yl-piperidin-1-yl)-ethyl]-cyclohexyl}-amide] | 4.53 nM | 175 °C | 2.44 nM | 37.3 nM |
| – | O=C(Cc1ccc2c(c1)OCO2)N[C@H]1CC[C@H](CCN2CCC(c3coc4ccccc34)CC2)CC1 [Example 74, trans-2-Benzo[1,3]dioxol-5-yl-N-{4-[2-(4-benzofuran-3-yl-piperidin-1-yl)-ethyl]-cyclohexyl}-acetamide] | 1.66 nM | 177 °C | 11.5 nM | 92.5 nM |
| – | CC(C)(C)CC(=O)N[C@H]1CC[C@H](CCN2CCC(c3coc4ccccc34)CC2)CC1 [Example 40, trans-N-{4-[2-(4-Benzofuran-3-yl-piperidin-1-yl)-ethyl]-cyclohexyl}-3,3-dimethyl-butyramide] | 4.35 nM | 174 °C | 10.4 nM | 53 nM |
| – | O=C(N[C@H]1CC[C@H](CCN2CCC(c3coc4ccccc34)CC2)CC1)c1ccc(-c2cccnc2)cc1 [Example 64, trans-N-{4-[2-(4-Benzofuran-3-yl-piperidin-1-yl)-ethyl]-cyclohexyl}-4-pyridin-3-yl-benzamide] | 4.55 nM | 224 °C | 12.8 nM | 16.7 nM |
| – | O=C(N[C@H]1CC[C@H](CCN2CCC(c3coc4ccccc34)CC2)CC1)c1ccc(N2CCS(=O)(=O)CC2)cc1 [Example 66, trans-N-{4-[2-(4-Benzofuran-3-yl-piperidin-1-yl)-ethyl]-cyclohexyl}-4-(1,1-dioxo-1λ6-thiomorpholin-4-yl)-benzamide] | 3.4 nM | 269 °C | 10.1 nM | 19.2 nM |
| – | O=C(N[C@H]1CC[C@H](CCN2CCC(c3coc4ccccc34)CC2)CC1)c1ccc(C(F)(F)F)cc1 [Example 50, trans-N-{4-[2-(4-Benzofuran-3-yl-piperidin-1-yl)-ethyl]-cyclohexyl}-4-trifluoromethyl-benzamide] | 2.21 nM | 218 °C | 4.75 nM | 152 nM |
| – | O=C(CCC(F)(F)F)N[C@H]1CC[C@H](CCN2CCC(c3coc4ccccc34)CC2)CC1 [Example 44, trans-N-{4-[2-(4-Benzofuran-3-yl-piperidin-1-yl)-ethyl]-cyclohexyl}-4,4,4-trifluoro-butyramide] | 2.94 nM | 192 °C | 15 nM | 61.2 nM |
| – | COCCC(=O)N[C@H]1CC[C@H](CCN2CCC(c3coc4ccccc34)CC2)CC1 [Example 2, trans-N-{4-[2-(4-Benzofuran-3-yl-piperidin-1-yl)-ethyl]-cyclohexyl}-3-methoxy-propionamide] | 1.22 nM | 136 °C | 4.63 nM | 71.2 nM |
| – | O=C(N[C@H]1CC[C@H](CCN2CCC(c3coc4ccccc34)CC2)CC1)c1ccc(N2CCOCC2)cc1 [Example 13, trans-N-{4-[2-(4-Benzofuran-3-yl-piperidin-1-yl)-ethyl]-cyclohexyl}-4-morpholin-4-yl-benzamide] | 7.4 nM | 249 °C | 11.1 nM | 406 nM |
| – | O=C(N[C@H]1CC[C@H](CCN2CCC(c3coc4ccccc34)CC2)CC1)c1ccc(N2CCOCC2)nc1 [Example 65, trans-N-{4-[2-(4-Benzofuran-3-yl-piperidin-1-yl)-ethyl]-cyclohexyl}-6-morpholin-4-yl-nicotinamide] | 3.49 nM | 215 °C | 7.56 nM | 51.8 nM |
| – | CS(=O)(=O)c1ccc(C(=O)N[C@H]2CC[C@H](CCN3CCC(c4coc5ccccc45)CC3)CC2)cc1 [Example 86, trans-N-{4-[2-(4-Benzofuran-3-yl-piperidin-1-yl)-ethyl]-cyclohexyl}-4-methanesulfonyl-benzamide] | 25 nM | 224 °C | 5.79 nM | 79.5 nM |
| – | O=C(N[C@H]1CC[C@H](CCN2CCC(c3coc4ccccc34)CC2)CC1)c1ccc2c(c1)OCO2 [Example 58, Benzo[1,3]dioxole-5-carboxylic acid trans-{4-[2-(4-benzofuran-3-yl-piperidin-1-yl)-ethyl]-cyclohexyl}-amide] | 2.79 nM | 198 °C | 8.78 nM | 28.6 nM |
| – | Cc1cc(CC(=O)N[C@H]2CC[C@H](CCN3CCC(c4coc5ccccc45)CC3)CC2)on1 [Example 10, trans-N-{4-[2-(4-Benzofuran-3-yl-piperidin-1-yl)-ethyl]-cyclohexyl}-2-(3-methyl-isoxazol-5-yl)-acetamide] | 0.68 nM | 165 °C | 7.71 nM | 83.6 nM |
| – | CS(=O)(=O)N[C@H]1CC[C@H](CCN2CCC(c3coc4ccccc34)CC2)CC1 [Example 36, trans-N-{4-[2-(4-Benzofuran-3-yl-piperidin-1-yl)-ethyl]-cyclohexyl}-methanesulfonamide] | 2.85 nM | 142 °C | 5.43 nM | 47.4 nM |
| – | N#Cc1ccc(C(=O)N[C@H]2CC[C@H](CCN3CCC(c4coc5ccccc45)CC3)CC2)cc1 [Example 70, trans-N-{4-[2-(4-Benzofuran-3-yl-piperidin-1-yl)-ethyl]-cyclohexyl}-4-cyano-benzamide] | 2.68 nM | 195 °C | 5.89 nM | 15.2 nM |
| – | CC(C)C(=O)N[C@H]1CC[C@H](CCN2CCC(c3coc4ccccc34)CC2)CC1 [Example 14, trans-N-{4-[2-(4-Benzofuran-3-yl-piperidin-1-yl)-ethyl]-cyclohexyl}-isobutyramide] | 1.78 nM | 173 °C | 5.75 nM | 39.5 nM |
| – | CCCC(=O)N[C@H]1CC[C@H](CCN2CCC(c3coc4ccccc34)CC2)CC1 [Example 33, trans-N-{4-[2-(4-Benzofuran-3-yl-piperidin-1-yl)-ethyl]-cyclohexyl}-butyramide] | 1.71 nM | 155 °C | 5.53 nM | 45.3 nM |
| – | O=C(N[C@H]1CC[C@H](CCN2CCC(c3coc4ccccc34)CC2)CC1)c1ccc(-c2ccccc2)cc1 [Example 63, Biphenyl-4-carboxylic acid trans-{4-[2-(4-benzofuran-3-yl-piperidin-1-yl)-ethyl]-cyclohexyl}-amide] | 3.37 nM | 235 °C | 5.21 nM | 22.1 nM |
| inact. | O=C(N[C@H]1CC[C@H](CCN2CCC(c3coc4ccccc34)CC2)CC1)c1ccc(C2CCCCC2)cc1 [Example 82, trans-N-{4-[2-(4-Benzofuran-3-yl-piperidin-1-yl)-ethyl]-cyclohexyl}-4-cyclohexyl-benzamide] | 41.3 nM | 230 °C | 5.81 nM | – |
| – | O=C(N[C@H]1CC[C@H](CCN2CCC(c3coc4ccccc34)CC2)CC1)c1ccc(-n2cccn2)cc1 [Example 59, trans-N-[4-{2-(4-Benzofuran-3-yl-piperidin-1-yl)-ethyl]-cyclohexyl}-4-pyrazol-1-yl-benzamide] | 5.73 nM | 205 °C | 22.2 nM | 46.9 nM |
